“Also recorded” adds a separate entry of the source. Like-named read-outs stand apart in the source and are kept apart here.
Legend:
[1] = system: EBOV-GFP (recombinant Ebola Zaire virus expressing green fluorescence protein); assay: microbe, parasite or virus in culture; assay type: cell-based; details: for inhibition at 20 µM: Zaire ebolavirus, Vero C1008, 48 h, read-out: EBOV % Inhibition (20 μM)
[2] = system: EBOV-GFP; assay: microbe, parasite or virus in culture; assay type: cell-based, Ebola Zaire virus; details: for IC50: Zaire ebolavirus, Vero C1008, read-out: IC50 (read from graphs of % of control infection)
[3] = system: MPXV-GFP (recombinant monkeypox virus expressing GFP, Zaire strain); assay: microbe, parasite or virus in culture; assay type: cell-based; details: Vero C1008, in Primates, 48 h, read-out: Monkey Pox % Inhibition (20 μM)
[4] = system: Lassa virus (Josiah strain); assay type: cell-based
[5] = system: Rift Valley Fever Virus (ZH501 strain); assay type: cell-based
[6] = system: influenza virus (H1N1 A/Texas strain); assay type: cell-based

## CCN(CC)CCCNc1nc(C)cc(Nc2ccc3nc(C)cc(N)c3c2)n1 [NSC 23767, N^6-(2-((3-(diethylamino)propyl)amino)-6-methyl-4-pyrimidinyl)-2-methyl-4,6-quinolinediamine]
[1]
  inhibition at 20 µM: 74.1%

## O=C1C(SCCO)=C(SCCO)C(=O)c2ccccc21 [NSC 95397, 2,3-bis((2-hydroxyethyl)thio)naphthoquinone]
[1]
  EBOV % Inhibition (20 μM): 75.3%

## CC(=O)NC1=C(Sc2ccc(Cl)cc2)C(=O)c2ccccc2C1=O [NSC 128981, N-(3-((4-chlorophenyl)thio)-1,4-dioxo-1,4-dihydro-2-naphthalenyl)acetamide]
[2]
  IC50: ~15 µM
[1]
  inhibition at 20 µM: 97.7%

## N=C(N)c1ccc(-c2cc3ccc(C(=N)N)cc3s2)cc1 [NSC 240890, 2-(4-carbamimidoylphenyl)benzothiophene-6-carboximidamide; 2-hydroxypropanoic acid]
[3]
  inhibition at 20 µM: 46.7%
[1]
  inhibition at 20 µM: 54.9%

## N=C(N)c1ccc(-c2cc3cc(C(=N)N)ccc3s2)cc1 [NSC 240891, 2-(4-carbamimidoylphenyl)benzothiophene-5-carboximidamide]
[3]
  inhibition at 20 µM: 99.4%
[1]
  inhibition at 20 µM: 40.3%

## N=C(N)c1ccc(-c2nc3ccc(C(=N)N)cc3[nH]2)cc1 [NSC 240894, 2-(4-carbamimidoylphenyl)-3H-benzoimidazole-5-carboximidamide]
[3]
  inhibition at 20 µM: 89.7%

## N=C(N)c1ccc(-n2cc3cc(C(=N)N)ccc3n2)cc1 [NSC 240895, 2-(4-carbamimidoylphenyl)indazole-5-carboximidamide]
[3]
  inhibition at 20 µM: 99.7%
[1]
  inhibition at 20 µM: 32.2%

## N=C(N)c1ccc(Oc2ccc(-c3cc4ccc(C(=N)N)cc4[nH]3)cc2)cc1 [NSC 240898, 2-[4-(4-carbamimidoylphenoxy)phenyl]-1H-indole-6-carboximidamide]
[3]
  inhibition at 20 µM: 98.1%

## N=C(N)c1ccc(-c2cc(-c3ccc(C(=N)N)cc3)on2)cc1 [NSC 240900, 4-[3-(4-carbamimidoylphenyl)oxazol-5-yl]benzenecarboximidamide]
[3]
  inhibition at 20 µM: 79.9%

## Cc1c2ccncc2c(C)c2c1[nH]c1ccc(O)cc12 [NSC 264136, 5,11-dimethyl-6H-pyrido[4,3-b]carbazol-9-ol]
[1]
  inhibition at 20 µM: 63.1%

## N=C(N)c1ccc2oc(/C=C/c3cc4cc(C(=N)N)ccc4s3)cc2c1 [NSC 266472, 2-[(E)-2-(5-carbamimidoylbenzothiophen-2-yl)ethenyl]benzofuran-5-carboximidamide]
[1]
  inhibition at 20 µM: 67.5%

## c1cc(-c2cc3ccc(C4=NCCN4)cc3[nH]2)ccc1C1=NCCN1 [NSC 278995, 6-(4,5-dihydro-1H-imidazol-2-yl)-2-[4-(4,5-dihydro-1H-imidazol-2-yl)phenyl]-1H-indole]
[3]
  inhibition at 20 µM: 99.3%

## C(=C\c1cc2cc(C3=NCCN3)ccc2o1)/c1cc2cc(C3=NCCN3)ccc2o1 [NSC 278999, 2-[2-[(E)-2-[5-(4,5-dihydro-1H-imidazol-2-yl)benzofuran-2-yl]ethenyl]benzofuran-5-yl]-4,5-dihydro-1H-imidazole]
[1]
  inhibition at 20 µM: 55.6%

## N=C(N)c1ccc2[nH]c(/C=C/c3cc4cc(C(=N)N)ccc4o3)cc2c1 [NSC 290107, 2-[(E)-2-(5-carbamimidoylbenzofuran-2-yl)ethenyl]-1H-indole-5-carboximidamide]
[1]
  inhibition at 20 µM: 33.6%

## C(=C\c1cc2cc(C3=NCCN3)ccc2o1)/c1cc2cc(C3=NCCN3)ccc2[nH]1 [NSC 290108, 5-(4,5-dihydro-1H-imidazol-2-yl)-2-[(E)-2-[5-(4,5-dihydro-1H-imidazol-2-yl)benzofuran-2-yl]ethenyl]-1H-indole]
[3]
  inhibition at 20 µM: 45.1%
[1]
  inhibition at 20 µM: 45%

## O=C(Nc1ccc(C2=NCCN2)cc1)c1cc2cc(C3=NCCN3)ccc2o1 [NSC 290111, 5-(4,5-dihydro-1H-imidazol-2-yl)-N-[4-(4,5-dihydro-1H-imidazol-2-yl)phenyl]benzofuran-2-carboxamide]
[1]
  inhibition at 20 µM: 40%

## N=C(N)c1ccc2cc(/C=C/c3cc4ccc(C(=N)N)cc4o3)oc2c1 [NSC 294199, 2-[(E)-2-(6-carbamimidoylbenzofuran-2-yl)ethenyl]benzofuran-6-carboximidamide]
[3]
  inhibition at 20 µM: 40.9%
[1]
  inhibition at 20 µM: 68.8%

## N=C(N)c1ccc2oc(/C=C/c3cc4ccc(C(=N)N)cc4o3)cc2c1 [NSC 294202, 2-[(E)-2-(5-carbamimidoylbenzofuran-2-yl)ethenyl]benzofuran-6-carboximidamide]
[4]
  antiviral activity toward LV (Lassa virus): showed antiviral activity
[2]
  dose dependent antiviral activity toward EBOV-GFP: dose dependent antiviral activity
  IC50: ~6 µM
[5]
  antiviral activity toward RVFV: showed antiviral activity
[6]
  antiviral activity toward influenza virus: showed antiviral activity
  inhibition of influenza virus replication: more than one log; also recorded: inhibit the replication
[1]
  inhibition at 20 µM: 71.2%

## O=C(Nc1ccc(C2=NCCN2)cc1)c1cc2ccc(C3=NCCN3)cc2[nH]1 [NSC 294206, 6-(4,5-dihydro-1H-imidazol-2-yl)-N-[4-(4,5-dihydro-1H-imidazol-2-yl)phenyl]-1H-indole-2-carboxamide]
[3]
  inhibition at 20 µM: 86%
[2]
  dose dependent antiviral activity toward EBOV-GFP: dose dependent antiviral activity
[1]
  inhibition at 20 µM: 61.5%

## O=C(Nc1ccc(C2=NCCN2)cc1)c1cc2ccc(C3=NCCN3)cc2o1 [NSC 294208, 6-(4,5-dihydro-1H-imidazol-2-yl)-N-[4-(4,5-dihydro-1H-imidazol-2-yl)phenyl]benzofuran-2-carboxamide]
[1]
  inhibition at 20 µM: 38.8%

## N=C(N)c1ccc(-c2[nH]c3cc(C(=N)N)ccc3c2N)cc1 [NSC 300509, 3-amino-2-(4-carbamimidoylphenyl)-1H-indole-6-carboximidamide]
[3]
  inhibition at 20 µM: 84.9%

## N=C(N)c1ccc(-c2ccc(-c3ccc(C(=N)N)cc3)s2)cc1 [NSC 300510, 4-[5-(4-carbamimidoylphenyl)thiophen-2-yl]benzenecarboximidamide]
[3]
  inhibition at 20 µM: 89.9%
[2]
  dose dependent antiviral activity toward EBOV-GFP: dose dependent antiviral activity
[1]
  inhibition at 20 µM: 59.7%

## N=C(N)c1ccc2oc(/C=C/C=C/c3cc4cc(C(=N)N)ccc4o3)cc2c1 [NSC 300511, 2-[(1E,3E)-4-(5-carbamimidoylbenzofuran-2-yl)buta-1,3-dienyl]benzofuran-5-carboximidamide]
[1]
  inhibition at 20 µM: 49.2%

## c1cc(-c2cc3cc(C4=NCCN4)ccc3s2)ccc1C1=NCCN1 [NSC 308569, 2-[2-[4-(4,5-dihydro-1H-imidazol-2-yl)phenyl]benzothiophen-5-yl]-4,5-dihydro-1H-imidazole]
[3]
  inhibition at 20 µM: 95.8%
[1]
  inhibition at 20 µM: 35.3%

## C(=C\c1cc2cc(C3=NCCN3)ccc2o1)/c1ccc(C2=NCCN2)cc1 [NSC 308570, 2-[2-[(E)-2-[4-(4,5-dihydro-1H-imidazol-2-yl)phenyl]ethenyl]benzofuran-5-yl]-4,5-dihydro-1H-imidazole]
[1]
  inhibition at 20 µM: 30.7%

## C(/C=C/c1cc2cc(C3=NCCN3)ccc2o1)=C\c1cc2cc(C3=NCCN3)ccc2o1 [NSC 308571, 2-[2-[(1E,3E)-4-[5-(4,5-dihydro-1H-imidazol-2-yl)benzofuran-2-yl]buta-1,3-dienyl]benzofuran-5-yl]-4,5-dihydro-1H-imidazole]
[1]
  inhibition at 20 µM: 61.2%

## N=C(N)c1ccc(/C=C/C=C/c2cc3cc(C(=N)N)ccc3o2)cc1 [NSC 308572, 2-[(1E,3E)-4-(4-carbamimidoylphenyl)buta-1,3-dienyl]benzofuran-5-carboximidamide]
[1]
  inhibition at 20 µM: 32.8%

## C(/C=C/c1cc2cc(C3=NCCN3)ccc2o1)=C\c1ccc(C2=NCCN2)cc1 [NSC 308573, 2-[2-[(1E,3E)-4-[4-(4,5-dihydro-1H-imidazol-2-yl)phenyl]buta-1,3-dienyl]benzofuran-5-yl]-4,5-dihydro-1H-imidazole]
[1]
  inhibition at 20 µM: 54.2%

## c1cc2cc(-c3cc4ccc(C5=NCCN5)cc4[nH]3)[nH]c2cc1C1=NCCN1 [NSC 330688, 6-(4,5-dihydro-1H-imidazol-2-yl)-2-[6-(4,5-dihydro-1H-imidazol-2-yl)-1H-indol-2-yl]-1H-indole]
[3]
  inhibition at 20 µM: 84.9%
[1]
  inhibition at 20 µM: 51.3%

## N=C(N)c1ccc2c(c1)=NC(=C(N)N)C=2 [NSC 330689, 2-(diaminomethylidene)indole-6-carboximidamide]
[3]
  inhibition at 20 µM: 89.9%

## NC(N)=NN=Cc1ccc2cc(-c3ccc(/C=N/N=C(N)N)cc3)sc2c1 [NSC 341909, 2-[[2-[4-[(E)-(diaminomethylidenehydrazinylidene)methyl]phenyl]benzothiophen-6-yl]methylideneamino]guanidine]
[3]
  inhibition at 20 µM: 95.8%
[1]
  inhibition at 20 µM: 57.5%

## c1cc(-c2[nH]c3cc(C4=NCCN4)ccc3c2-c2cc3ccc(C4=NCCN4)cc3[nH]2)ccc1C1=NCCN1 [NSC 341911, 6-(4,5-dihydro-1H-imidazol-2-yl)-3-[6-(4,5-dihydro-1H-imidazol-2-yl)-1H-indol-2-yl]-2-[4-(4,5-dihydro-1H-imidazol-2-yl)phenyl]-1H-indole]
[1]
  inhibition at 20 µM: 33.2%

## c1cc(-c2[nH]c3cc(C4=NCCN4)ccc3c2-c2cc3ccc(C4=NCCN4)cc3[nH]2)ccc1C1=NCCN1 [NSC 352341, 6-(4,5-dihydro-1H-imidazol-2-yl)-3-[6-(4,5-dihydro-1H imidazol-2-yl)-1H-indol-2-yl]-2-[4-(4,5-dihydro-1H-imidazol-2-yl)phenyl]-1H-indole]
[1]; 20 µM
  EBOV % Inhibition (20 μM): 41.2%

## Nc1ccc(-c2cc3ccc(C4=NCCN4)cc3[nH]2)cc1 [NSC 369715, 4-(6-(4,5-dihydro-1H-imidazol-2-yl)-1H-indol-2-yl)phenylamine]
[1]
  inhibition at 20 µM: 56.8%

Source: patent US7999001B2 (priority 2007, dated 2011)
